Source: ChEMBL document CHEMBL4673358 (Bioorg Med Chem Lett, 2021)
Activity calls are given as the source filed them. The rule behind the calls is not given here.

Assays:
[1] = target: T1, Indoleamine 2,3-dioxygenase 1 (Homo sapiens, UniProt P14902); experiment: Inhibition of IDO1 in human SKOV3 cells; assay type: cell-based, SK-OV-3
Target sequence in this assay (P14902 whole entry): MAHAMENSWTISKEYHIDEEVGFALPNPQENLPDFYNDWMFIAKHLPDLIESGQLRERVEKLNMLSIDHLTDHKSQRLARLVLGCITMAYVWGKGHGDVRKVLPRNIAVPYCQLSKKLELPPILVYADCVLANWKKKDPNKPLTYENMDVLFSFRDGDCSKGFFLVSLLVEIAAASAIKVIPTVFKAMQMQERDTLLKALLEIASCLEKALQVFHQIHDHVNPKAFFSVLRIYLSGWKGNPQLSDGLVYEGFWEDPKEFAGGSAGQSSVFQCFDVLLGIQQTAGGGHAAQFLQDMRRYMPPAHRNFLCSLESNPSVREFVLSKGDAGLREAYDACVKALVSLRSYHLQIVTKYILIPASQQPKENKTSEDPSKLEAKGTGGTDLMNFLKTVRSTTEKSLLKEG

[2] = target: T1, Indoleamine 2,3-dioxygenase 1; experiment: Inhibition of IDO1 in human whole blood; assay type: tissue-based
Target sequence in this assay (P14902 whole entry): as above

[3] = target: Tryptophan 2,3-dioxygenase (Homo sapiens, UniProt P48775); experiment: Inhibition of TDO in HEK cells; assay type: cell-based
Chain of Tryptophan 2,3-dioxygenase (P48775 whole entry): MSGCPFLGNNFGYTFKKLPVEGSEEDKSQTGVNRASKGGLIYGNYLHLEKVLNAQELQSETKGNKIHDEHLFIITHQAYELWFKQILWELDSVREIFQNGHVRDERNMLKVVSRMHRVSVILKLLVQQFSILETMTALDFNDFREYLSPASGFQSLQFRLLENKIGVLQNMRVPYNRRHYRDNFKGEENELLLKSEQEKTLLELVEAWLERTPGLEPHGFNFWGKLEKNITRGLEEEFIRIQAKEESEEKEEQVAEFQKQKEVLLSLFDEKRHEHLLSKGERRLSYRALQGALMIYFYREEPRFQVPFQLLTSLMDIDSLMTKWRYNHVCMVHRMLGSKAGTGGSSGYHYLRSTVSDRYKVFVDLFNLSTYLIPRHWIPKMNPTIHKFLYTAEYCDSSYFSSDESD

[4] = Metabolic stability in human hepatocytes assessed as half life; assay type: ADME, cell-based, Hepatocyte
[5] = Cmax in mouse at 10 mg/kg, po; assay type: ADME, organism-based; design: route oral, dose 10 mg/kg; settings: in vivo
[6] = Metabolic stability in human hepatocytes assessed as intrinsic clearance measured per million cells; assay type: ADME, cell-based, Hepatocyte; settings: read-out: CLH
[7] = Half life in mouse at 10 mg/kg, po; assay type: ADME, organism-based; settings: in vivo
[8] = target: Indoleamine 2,3-dioxygenase 1 (Mus musculus) (UniProt P28776); experiment: In vivo inhibition of IDO1 in mouse assessed as reduction in LPS-induced kynurenine level at 30 mg/kg, po administered as single dose measured after 36 hrs relative to control; assay type: functional, organism-based
Chain of Indoleamine 2,3-dioxygenase 1 (Mus musculus) (P28776 whole entry, looked up): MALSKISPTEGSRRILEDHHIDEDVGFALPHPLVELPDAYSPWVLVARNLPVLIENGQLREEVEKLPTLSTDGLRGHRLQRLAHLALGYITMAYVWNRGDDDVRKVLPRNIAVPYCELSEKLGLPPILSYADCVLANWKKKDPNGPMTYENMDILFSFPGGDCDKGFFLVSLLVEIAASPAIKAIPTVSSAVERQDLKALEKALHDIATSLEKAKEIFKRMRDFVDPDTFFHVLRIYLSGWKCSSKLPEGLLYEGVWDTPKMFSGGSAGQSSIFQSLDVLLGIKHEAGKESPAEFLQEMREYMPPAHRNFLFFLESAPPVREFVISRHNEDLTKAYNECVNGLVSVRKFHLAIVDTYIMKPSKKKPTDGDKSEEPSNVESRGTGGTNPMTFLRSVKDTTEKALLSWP

[9] = AUC(0 to 24 hrs) in mouse at 10 mg/kg, po; assay type: ADME, organism-based; design: time < 24 hr, route oral, dose 10 mg/kg; settings: in vivo
[10] = Metabolic stability in human liver microsomes assessed as intrinsic clearance; assay type: ADME, Microsome; settings: read-out: CLH
[11] = Metabolic stability in mouse liver microsomes assessed as intrinsic clearance; assay type: ADME, Microsome; settings: read-out: CLH
[12] = Metabolic stability in mouse hepatocytes assessed as intrinsic clearance measured per million cells; assay type: ADME, cell-based, Hepatocyte; settings: read-out: CLH
[13] = Metabolic stability in rat hepatocytes assessed as intrinsic clearance measured per million cells; assay type: ADME, cell-based, Hepatocyte; settings: read-out: CLH
[14] = AUC(0 to 72 hrs) in rat at 10 mg/kg, po; assay type: ADME, organism-based; design: time < 72 hr, route oral, dose 10 mg/kg; settings: in vivo
[15] = Metabolic stability in mouse hepatocytes assessed as half life; assay type: ADME, cell-based, Hepatocyte
hERG (KCNH2) [16] = target: T2, hERG (KCNH2) (Homo sapiens, UniProt Q12809); experiment: Inhibition of human ERG at 10 uM relative to control
T2 sequence (Q12809 whole entry): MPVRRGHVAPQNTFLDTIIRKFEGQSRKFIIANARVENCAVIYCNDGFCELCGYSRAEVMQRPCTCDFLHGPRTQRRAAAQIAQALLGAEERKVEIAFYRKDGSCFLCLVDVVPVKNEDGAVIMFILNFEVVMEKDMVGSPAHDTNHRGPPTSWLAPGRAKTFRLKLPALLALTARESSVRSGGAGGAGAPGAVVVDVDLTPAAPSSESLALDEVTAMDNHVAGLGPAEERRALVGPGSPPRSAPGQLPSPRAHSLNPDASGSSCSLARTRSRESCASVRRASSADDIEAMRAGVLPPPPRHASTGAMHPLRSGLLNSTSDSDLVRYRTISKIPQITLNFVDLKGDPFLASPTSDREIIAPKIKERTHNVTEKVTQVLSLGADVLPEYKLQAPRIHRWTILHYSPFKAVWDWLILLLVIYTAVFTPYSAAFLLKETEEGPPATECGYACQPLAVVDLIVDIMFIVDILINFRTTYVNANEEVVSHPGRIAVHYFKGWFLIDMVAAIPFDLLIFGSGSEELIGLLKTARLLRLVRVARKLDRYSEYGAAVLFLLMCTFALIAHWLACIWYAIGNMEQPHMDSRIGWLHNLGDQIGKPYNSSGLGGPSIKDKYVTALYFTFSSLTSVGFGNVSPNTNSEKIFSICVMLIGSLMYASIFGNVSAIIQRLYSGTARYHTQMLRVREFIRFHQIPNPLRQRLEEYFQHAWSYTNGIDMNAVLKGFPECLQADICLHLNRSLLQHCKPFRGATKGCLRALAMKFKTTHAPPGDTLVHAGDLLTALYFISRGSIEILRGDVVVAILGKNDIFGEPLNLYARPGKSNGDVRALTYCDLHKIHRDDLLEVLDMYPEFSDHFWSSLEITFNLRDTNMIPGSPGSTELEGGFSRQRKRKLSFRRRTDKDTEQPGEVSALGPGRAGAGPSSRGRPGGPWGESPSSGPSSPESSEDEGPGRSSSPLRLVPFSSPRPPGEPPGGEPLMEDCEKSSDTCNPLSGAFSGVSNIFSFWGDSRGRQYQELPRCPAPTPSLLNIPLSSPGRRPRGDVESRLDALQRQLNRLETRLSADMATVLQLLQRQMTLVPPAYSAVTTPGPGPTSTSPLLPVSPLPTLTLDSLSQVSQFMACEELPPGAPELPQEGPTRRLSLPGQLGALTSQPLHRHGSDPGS

[17] = Half life in rat at 10 mg/kg, po; assay type: ADME, organism-based; settings: in vivo
[18] = Metabolic stability in rat hepatocytes assessed as half life; assay type: ADME, cell-based, Hepatocyte
[19] = target: Indoleamine 2,3-dioxygenase 1 (Mus musculus) (UniProt P28776); experiment: In vivo inhibition of IDO1 in mouse assessed as reduction in kynurenine level; assay type: functional
[20] = Plasma protein binding in human; assay type: ADME, cell-free; settings: read-out: PPB
[21] = Cmax in rat at 10 mg/kg, po; assay type: ADME, organism-based; design: route oral, dose 10 mg/kg; settings: in vivo
[22] = Plasma protein binding in mouse; assay type: ADME, cell-free; settings: read-out: PPB (converted)
[23] = target: T1, Indoleamine 2,3-dioxygenase 1; experiment: Binding affinity to IDO1 (unknown origin) assessed as change in melting temperature at 5 uM by thermal shift assay
Target sequence in this assay (P14902 whole entry, looked up): as the sequence (P14902 whole entry) above

[24] = target: Indoleamine 2,3-dioxygenase 1 (Mus musculus, UniProt P28776); experiment: Inhibition of mouse IDO1 expressed in HEK cells; assay type: cell-based
Chain of Indoleamine 2,3-dioxygenase 1 (Mus musculus, UniProt P28776) (P28776 whole entry): as the sequence (P28776 whole entry, looked up) above

[25] = AUC(0 to 72 hrs) in mouse at 10 mg/kg, po; assay type: ADME, organism-based; design: time < 72 hr, route oral, dose 10 mg/kg; settings: in vivo
Cytochrome P450 3A4 = Cytochrome P450 3A4 (Homo sapiens, UniProt P08684); experiment: Inhibition of CYP3A4 (unknown origin); assay type: ADME
Chain of Cytochrome P450 3A4 (P08684 whole entry): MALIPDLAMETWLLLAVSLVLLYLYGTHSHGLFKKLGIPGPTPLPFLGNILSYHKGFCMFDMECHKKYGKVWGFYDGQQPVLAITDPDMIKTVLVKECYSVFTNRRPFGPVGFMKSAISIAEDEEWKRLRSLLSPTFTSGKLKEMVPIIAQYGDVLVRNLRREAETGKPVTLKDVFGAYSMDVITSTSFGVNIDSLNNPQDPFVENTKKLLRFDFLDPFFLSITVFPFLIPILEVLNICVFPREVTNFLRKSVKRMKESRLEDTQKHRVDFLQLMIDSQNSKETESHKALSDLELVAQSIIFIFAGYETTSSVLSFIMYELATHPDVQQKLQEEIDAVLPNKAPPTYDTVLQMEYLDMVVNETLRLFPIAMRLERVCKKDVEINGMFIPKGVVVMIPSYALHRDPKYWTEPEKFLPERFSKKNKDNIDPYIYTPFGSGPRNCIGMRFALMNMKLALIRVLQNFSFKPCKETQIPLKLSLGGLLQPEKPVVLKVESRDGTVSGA

hERG (KCNH2) [26] = target: T2, hERG (KCNH2); experiment: Inhibition of human ERG assessed as reduction in channel tail current at 10 uM by patch clamp assay relative to control
Cytochrome P450 2C9 = Cytochrome P450 2C9 (Homo sapiens, UniProt P11712); experiment: Inhibition of CYP2C9 (unknown origin); assay type: ADME
Chain of Cytochrome P450 2C9 (P11712 whole entry): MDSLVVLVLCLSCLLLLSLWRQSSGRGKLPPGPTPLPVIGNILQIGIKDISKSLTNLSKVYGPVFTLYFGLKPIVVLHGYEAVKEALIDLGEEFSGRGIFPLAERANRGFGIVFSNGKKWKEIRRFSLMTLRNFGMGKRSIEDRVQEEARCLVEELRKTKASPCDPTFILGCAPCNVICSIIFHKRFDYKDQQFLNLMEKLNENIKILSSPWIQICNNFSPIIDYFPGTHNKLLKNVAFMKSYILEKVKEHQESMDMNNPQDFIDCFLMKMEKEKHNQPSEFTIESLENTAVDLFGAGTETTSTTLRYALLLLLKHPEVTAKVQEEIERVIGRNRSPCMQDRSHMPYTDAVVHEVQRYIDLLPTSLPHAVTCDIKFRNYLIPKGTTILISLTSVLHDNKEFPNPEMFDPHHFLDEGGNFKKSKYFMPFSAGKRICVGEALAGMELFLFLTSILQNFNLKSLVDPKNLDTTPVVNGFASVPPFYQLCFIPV

## O=C(Nc1ccc(Cl)cc1)C(=O)N1CCC2(CC1)COc1cc(C(F)(F)F)ccc12
[1]
  IC50: 0.032 µM
[2]
  IC50: 1.7 µM

## O=C(CN1CCC2(CCc3ccccc32)CC1)Nc1ccc(Cl)cc1
[1]
  IC50: 0.67 µM
[3]
  IC50: 42.8 µM

## C[C@@H](C(=O)Nc1ccc(Cl)cc1)[C@H]1CC[C@@H](c2ccnc3ccc(F)cc32)CC1
[4]
  half-life: 2.55 h
[5]
  Cmax: 2 µM
[6]
  hepatocyte CLint: 4.5 µL/min/1e6 cells
[7]
  half-life: 2.5 h
[8]
  inhibition: Active
[9]
  AUC(0-t) at 24 h: 9.3 µM·h

## C[C@@H](C(=O)Nc1ccc(Cl)cc1)[C@H]1CC[C@@]2(CC1)COc1cc(C(F)(F)F)ccc12
[1]
  IC50: 0.0066 µM
[10]
  microsomal CLint: 43 µL/min/mg
[3]
  IC50: 10.3 µM
[11]
  microsomal CLint: 92 µL/min/mg

## CCC(C(=O)Nc1ccc(Cl)cc1)N1CCC2(CCOc3cc(C(F)(F)F)ccc32)CC1 (stereo not drawn)
[1]
  IC50: 0.012 µM
[10]
  microsomal CLint: 22 µL/min/mg
[3]
  IC50: 11.8 µM
[11]
  microsomal CLint: 39 µL/min/mg
[2]
  IC50: 0.36 µM

## CC(C(=O)Nc1ccc(Cl)cc1)N1CCC2(CC1)COc1cc(C(F)(F)F)ccc12 (racemic)
[1]
  IC50: 0.022 µM
[10]
  microsomal CLint: 11 µL/min/mg
[3]
  IC50: 35.6 µM
[11]
  microsomal CLint: 56 µL/min/mg
[2]
  IC50: 1.32 µM

## C[C@H](C(=O)Nc1ccc(Cl)cc1)[C@H]1CC[C@@]2(CC1)COc1cc(C(F)(F)F)ccc12
[1]
  IC50: 0.0051 µM
[10]
  microsomal CLint: 67 µL/min/mg
[3]
  IC50: 7.8 µM
[11]
  microsomal CLint: 193 µL/min/mg
[2]
  IC50: 0.051 µM

## CC(C(=O)Nc1ccc(Cl)cc1)N1CCC2(CCc3ccccc32)CC1 (racemic)
[1]
  IC50: 0.039 µM
[10]
  microsomal CLint: 326 µL/min/mg
[3]
  IC50: 39 µM
[11]
  microsomal CLint: 668 µL/min/mg

## C[C@H](C(=O)Nc1ccc(Cl)cc1)[C@H]1CC[C@]2(CC1)COc1ncc(C(F)(F)F)cc12
[1]
  IC50: 0.0079 µM
[10]
  microsomal CLint: 3 µL/min/mg
[3]
  IC50: 18.4 µM
[11]
  microsomal CLint: 19 µL/min/mg

## C[C@H](C(=O)Nc1ccc(Cl)cc1)[C@H]1CC[C@]2(CC1)COc1nc(C(F)(F)F)ccc12
[1]
  IC50: 0.0054 µM
[10]
  microsomal CLint: 1.6 µL/min/mg
[3]
  IC50: 7.1 µM
[11]
  microsomal CLint: 3.5 µL/min/mg

## O=C(CN1CCC2(CC1)COc1cc(C(F)(F)F)ccc12)Nc1ccc(Cl)cc1
[1]
  IC50: 0.26 µM
[3]
  IC50: 25.7 µM

## O=C(Nc1ccc(Cl)cc1)C(CCO)N1CCC2(CC1)COc1cc(C(F)(F)F)ccc12 (stereo not drawn)
[1]
  IC50: 0.086 µM
[3]
  IC50: 9.5 µM

## C[C@@H](C(=O)Nc1ccc(Cl)cc1)[C@H]1CC[C@]2(CC1)COc1cc(C(F)(F)F)ccc12
[1]
  IC50: 0.069 µM
[10]
  microsomal CLint: 3.7 µL/min/mg
[3]
  IC50: 10.5 µM
[11]
  microsomal CLint: 4.5 µL/min/mg

## CC[C@H](C(=O)Nc1ccc(Cl)cc1)N1CCC2(CC1)COc1cc(C(F)(F)F)ccc12 (stereo in doubt)
[1]
  IC50: 0.109 µM
[10]
  microsomal CLint: 17 µL/min/mg
[3]
  IC50: 15.5 µM
[11]
  microsomal CLint: 48 µL/min/mg

## O=C(Nc1ccc(Cl)cc1)C(=O)N1CCC(c2ccnc3ccc(F)cc23)CC1
[1]
  IC50: 0.015 µM
[2]
  IC50: 1.6 µM

## O=C(Nc1ccc(Cl)cc1)C(CC1CC1)N1CCC2(CC1)COc1cc(C(F)(F)F)ccc12 (stereo not drawn)
[1]
  IC50: 0.0044 µM
[10]
  microsomal CLint: 13 µL/min/mg
[3]
  IC50: 15.9 µM
[11]
  microsomal CLint: 14 µL/min/mg
[2]
  IC50: 0.3 µM

## CC(C(=O)Nc1ccc(Cl)cc1)C1CCC2(CC1)c1ccc(C(F)(F)F)cc1CN2C (stereo not drawn)
[1]
  IC50: 0.0083 µM
[10]
  microsomal CLint: 1.4 µL/min/mg
[3]
  IC50: 7.1 µM
[11]
  microsomal CLint: 9.5 µL/min/mg

## CC(C)(C(=O)Nc1ccc(Cl)cc1)N1CCC2(CC1)COc1cc(C(F)(F)F)ccc12
[1]
  IC50: 0.011 µM
[10]
  microsomal CLint: 34 µL/min/mg
[3]
  IC50: 47.9 µM
[11]
  microsomal CLint: 117 µL/min/mg

## C[C@H](C(=O)Nc1ccc(Cl)cc1)[C@H]1CC[C@]2(CC1)COc1cc(C(F)(F)F)ccc12
[12]
  hepatocyte CLint: 1.7 µL/min/1e6 cells
[13]
  hepatocyte CLint: 5.6 µL/min/1e6 cells
[14]
  AUC(0-t) at 72 h: 18.2 µM·h
[15]
  half-life: 6.65 h
hERG (KCNH2) [16]
  inhibition at 10 µM: 67%
[1]
  IC50: 0.0039 µM
[17]
  half-life: 49 h
[18]
  half-life: 2.08 h
[19]
  inhibition: inactive
[10]
  microsomal CLint: < 1 µL/min/mg
[4]
  half-life: 2.92 h
[20]
  fraction unbound: 0.001
[21]
  Cmax: 0.58 µM
[22]
  fraction unbound: 0.005
[23]
  ΔTm: 17.8 °C
[5]
  Cmax: 2.88 µM
[24]
  IC50: 0.0078 µM
[6]
  hepatocyte CLint: 4 µL/min/1e6 cells
[7]
  half-life: 115 h
[3]
  IC50: 7.3 µM
[11]
  microsomal CLint: < 1 µL/min/mg
[2]
  IC50: 0.052 µM
[25]
  AUC(0-t) at 72 h: 105 µM·h
Cytochrome P450 3A4
  IC50: 3.1 µM
[8]
  inhibition: Active
hERG (KCNH2) [26]
  inhibition at 10 µM: 44%

## CC[C@@H](C(=O)Nc1ccc(Cl)cc1)N1CCC2(CC1)COc1cc(C(F)(F)F)ccc12 (stereo in doubt)
hERG (KCNH2) [16]
  inhibition at 10 µM: 85%
[1]
  IC50: 0.012 µM
[10]
  microsomal CLint: 22 µL/min/mg
[23]
  ΔTm: 15.2 °C
[24]
  IC50: 0.038 µM
[3]
  IC50: 11.4 µM
[11]
  microsomal CLint: 53 µL/min/mg
[2]
  IC50: 0.36 µM
Cytochrome P450 2C9
  IC50: 5 µM

## CC[C@H](C(=O)Nc1ccc(Cl)cn1)[C@H]1CC[C@]2(CC1)COc1cc(C(F)(F)F)ccc12
[1]
  IC50: 0.007 µM
[10]
  microsomal CLint: 5.9 µL/min/mg
[3]
  IC50: 26.4 µM
[11]
  microsomal CLint: 30 µL/min/mg
[2]
  IC50: 0.32 µM
